Data as given in patent US10294202B2, “Pyrrolidinones as herbicides” (FMC Corporation, priority 2013, dated 2019).

What was measured:
barnyardgrass [1] = experiment: Test A pre-/postemergence herbicide test; type: in vivo, Echinochloa crus-galli
Procedure, shortened: (§1)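 Formulated compound (non-phytotoxic solvent, surfactant) sprayed pre- onto soil of seeded loam/sand pots or post- onto seedlings at 1–2 leaves; ~10 d greenhouse; 0–100 visual control rating versus untreated.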

kochia = experiment: Test A pre-/postemergence herbicide test; type: in vivo, Kochia scoparia
Procedure, shortened: as §1

ragweed = experiment: Test A pre-/postemergence herbicide test; type: in vivo, Ambrosia elatior
Procedure, shortened: as §1

ryegrass, Italian = experiment: Test A pre-/postemergence herbicide test; type: in vivo, Lolium multiflorum
Procedure, shortened: as §1

giant foxtail = experiment: Test A pre-/postemergence herbicide test; type: in vivo, Setaria faberii
Procedure, shortened: as §1

pigweed = experiment: Test A pre-/postemergence herbicide test; type: in vivo, Amaranthus retroflexus
Procedure, shortened: as §1

wheat = experiment: Test A pre-/postemergence herbicide test; type: in vivo, Triticum aestivum; details: Postemergence
Procedure, shortened: as §1

corn = experiment: Test A pre-/postemergence herbicide test; type: in vivo, Zea mays; details: Postemergence
Procedure, shortened: as §1

blackgrass = experiment: Test A postemergence herbicide test; type: in vivo, Alopecurus myosuroides
Procedure, shortened: (§2)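 Potted in loam soil/sand blend; postemergence application at 1–2 leaf stage (2–10 cm). Greenhouse ~10 d. Visual injury vs untreated, 0–100 scale; 100 = complete control.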

galium = experiment: Test A postemergence herbicide test; type: in vivo, Galium aparine
Procedure, shortened: as §2

rice = experiment: Test C flooded paddy test; type: in vivo, Oryza sativa; details: Flood
Procedure, shortened: (§3)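 Plants at the 2-leaf stage in pots flooded to 3 cm were treated by applying compound directly to the paddy water, with depth held throughout. After 13 to 15 days in a greenhouse, response was rated visually against controls on a 0 (no effect) to 100 (complete control) scale.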

sedge, umbrella = experiment: Test C flooded paddy test; type: in vivo, Cyperus difformis; details: Flood
Procedure, shortened: as §3

ducksalad = experiment: Test C flooded paddy test; type: in vivo, Heteranthera limosa; details: Flood
Procedure, shortened: as §3

barnyardgrass [2] = experiment: Test C flooded paddy test; type: in vivo, Echinochloa crus-galli; details: Flood
Procedure, shortened: as §3

morningglory = experiment: Test A pre-/postemergence herbicide test; type: in vivo, Ipomoea spp.; details: Postemergence, 125 g ai/ha; visual rating on 0 to 100 scale (0 no effect, 100 complete control), approx. 10 days
Procedure, shortened: as §1

[3] = Postemergence, 125 g ai/ha, 0 to 100 scale, 0 no effect, 100 complete control
[4] = Postemergence, 500 g ai/ha, 0 to 100 scale (0 no effect, 100 complete control)
[5] = Preemergence, 125 g ai/ha, visual rating on 0 to 100 scale (0 no effect, 100 complete control)
[6] = preemergence, 500 g ai/ha, 0 to 100 scale
[7] = 125 g ai/ha, 0 to 100 scale, 0 no effect, 100 complete control
[8] = 500 g ai/ha, 0 to 100 scale (0 no effect, 100 complete control)
[9] = 125 g ai/ha, scale of 0 to 100 where 0 is no effect and 100 is complete control, 13 to 15 days
[10] = Postemergence, 125 g ai/ha, 0 to 100 scale, 0 is no effect, 100 is complete control
[11] = Preemergence, 125 g ai/ha, 0 to 100 scale where 0 is no effect and 100 is complete control
[12] = preemergence, 500 g ai/ha, 0 to 100 scale, 0 is no effect and 100 is complete control
[13] = 125 g ai/ha, 0 to 100 scale, 0 is no effect, 100 is complete control
[14] = 250 g ai/ha, scale of 0 to 100 where 0 is no effect and 100 is complete control, 13 to 15 days

O=C1NCC(c2cccc(C(F)(F)F)c2)C1C(=O)Nc1nnc(C(F)(F)F)s1 (racemic) [Compound 112]
Plant response rating, Barnyardgrass (barnyardgrass [1]; [3]): 0
Plant response rating, Barnyardgrass (barnyardgrass [1]; [4]): 0
Barnyardgrass plant response rating (barnyardgrass [1]; [5]): 0
Plant response rating, Barnyardgrass (barnyardgrass [1]; preemergence, 500 g ai/ha, 0 to 100 scale (0 no effect, 100 complete control)): 0
Plant response rating, Kochia (kochia; [3]): 0
Kochia plant response rating (0 to 100 scale, 0 is no effect, 100 is complete control) (kochia; Postemergence, 500 g ai/ha): 0
Kochia plant response rating (kochia; [5]): 0
Plant response rating, Kochia (kochia; [6]): 0
Plant response rating, Ragweed (ragweed; [3]): 0
Ragweed plant response rating (0 to 100 scale, 0 is no effect, 100 is complete control) (ragweed; Postemergence, 500 g ai/ha): 0
Ragweed plant response rating (ragweed; [5]): 0
Plant response rating, Ragweed (ragweed; [6]): 0
Plant response rating, Ryegrass, Italian (ryegrass, Italian; [3]): 0
Ryegrass, Italian plant response rating (0 to 100 scale, 0 is no effect, 100 is complete control) (ryegrass, Italian; Postemergence, 500 g ai/ha): 0
Ryegrass, Italian plant response rating (ryegrass, Italian; [5]): 0
Plant response rating, Ryegrass, Italian (ryegrass, Italian; [6]): 0
Plant response rating, Foxtail, Giant (giant foxtail; [3]): 0
Foxtail, Giant plant response rating (0 to 100 scale, 0 is no effect, 100 is complete control) (giant foxtail; Postemergence, 500 g ai/ha): 0
Foxtail, Giant plant response rating (giant foxtail; [5]): 0
Plant response rating, Foxtail, Giant (giant foxtail; [6]): 0
Plant response rating, Pigweed (pigweed; [3]): 0
Pigweed plant response rating (0 to 100 scale, 0 is no effect, 100 is complete control) (pigweed; Postemergence, 500 g ai/ha): 0
Pigweed plant response rating (pigweed; [5]): 0
Plant response rating, Pigweed (pigweed; [6]): 0
Plant response rating, Wheat (wheat; [7]): 0
Wheat plant response rating (0 to 100 scale, 0 is no effect, 100 is complete control) (wheat; 500 g ai/ha): 0
Plant response rating, Corn (corn; [7]): 0
Plant response rating, Corn (corn; [8]): 0
Plant response rating, Blackgrass (blackgrass; [7]): 0
Plant response rating, Blackgrass (blackgrass; [8]): 0
Plant response rating, Galium (galium; [7]): 0
Galium plant response rating (0 to 100 scale, 0 is no effect, 100 is complete control) (galium; 500 g ai/ha): 0
Plant response rating, Rice (rice; [9]): 0
Plant response rating, Rice (rice; 250 g ai/ha, scale 0 to 100): 0
Plant response rating, Rice (rice; 500 g ai/ha, scale 0 to 100): 0
Plant response rating, Rice (rice; 1000 g ai/ha, scale 0 to 100): 0
Plant response rating, Sedge, Umbrella (sedge, umbrella; [9]): 0
Plant response rating, Sedge, Umbrella (sedge, umbrella; 250 g ai/ha, scale 0 to 100): 0
Plant response rating, Sedge, Umbrella (sedge, umbrella; 500 g ai/ha, scale 0 to 100): 0
Plant response rating, Sedge, Umbrella (sedge, umbrella; 1000 g ai/ha, scale 0 to 100): 0
Plant response rating, Ducksalad (ducksalad; [9]): 0
Plant response rating, Ducksalad (ducksalad; 250 g ai/ha, scale 0 to 100): 0
Plant response rating, Ducksalad (ducksalad; 500 g ai/ha, scale 0 to 100): 0
Plant response rating, Ducksalad (ducksalad; 1000 g ai/ha, scale 0 to 100): 0
Plant response rating, Barnyardgrass (barnyardgrass [2]; [9]): 0
Plant response rating, Barnyardgrass (barnyardgrass [2]; 250 g ai/ha, scale 0 to 100): 0
Plant response rating, Barnyardgrass (barnyardgrass [2]; 500 g ai/ha, scale 0 to 100): 0
Plant response rating, Barnyardgrass (barnyardgrass [2]; 1000 g ai/ha, scale 0 to 100): 0

CN1CC(c2ccc(F)cc2)C(C(=O)Nc2ccccc2F)C1=O (centres unmarked) [Compound 270]
Plant response rating, Barnyardgrass (barnyardgrass [1]; [10]): 90
Plant response rating, Barnyardgrass (barnyardgrass [1]; [4]): 90
Plant response rating, Barnyardgrass (barnyardgrass [1]; [11]): 60
Plant response rating, Barnyardgrass (barnyardgrass [1]; [12]): 90
Plant response rating, Kochia (kochia; [10]): 0
Plant response rating, Kochia (kochia; [4]): 30
Plant response rating, Kochia (kochia; [11]): 0
Plant response rating, Kochia (kochia; [12]): 80
Plant response rating, Ragweed (ragweed; [4]): 0
Plant response rating, Ragweed (ragweed; [11]): 0
Plant response rating, Ragweed (ragweed; [12]): 20
Plant response rating, Ryegrass, Italian (ryegrass, Italian; [4]): 20
Plant response rating, Ryegrass, Italian (ryegrass, Italian; [11]): 0
Plant response rating, Ryegrass, Italian (ryegrass, Italian; [12]): 0
Plant response rating, Foxtail, Giant (giant foxtail; [10]): 60
Plant response rating, Foxtail, Giant (giant foxtail; [4]): 90
Plant response rating, Foxtail, Giant (giant foxtail; [11]): 80
Plant response rating, Foxtail, Giant (giant foxtail; [12]): 90
Plant response rating, Morningglory (morningglory): 0
Plant response rating, Pigweed (pigweed; Postemergence, 125 g ai/ha, visual rating on 0 to 100 scale (0 no effect, 100 complete control), approx. 10 days): 40
Plant response rating, Pigweed (pigweed; [4]): 0
Plant response rating, Pigweed (pigweed; [11]): 0
Plant response rating, Pigweed (pigweed; [12]): 20
Plant response rating, Wheat (wheat; 125 g ai/ha, visual rating on 0 to 100 scale (0 no effect, 100 complete control), approx. 10 days): 0
Plant response rating, Wheat (wheat; [8]): 20
Plant response rating, Corn (corn; [13]): 0
Plant response rating, Corn (corn; [8]): 30
Plant response rating, Blackgrass (blackgrass; [13]): 0
Plant response rating, Blackgrass (blackgrass; [8]): 20
Plant response rating, Galium (galium; [13]): 20
Plant response rating, Galium (galium; [8]): 50
Plant response rating, Rice (rice; [9]): 0
Plant response rating, Rice (rice; [14]): 0
Plant response rating, Rice (rice; 500 g ai/ha, scale 0 to 100): 0
Plant response rating, Rice (rice; 1000 g ai/ha, scale 0 to 100): 0
Plant response rating, Sedge, Umbrella (sedge, umbrella; [9]): 0
Plant response rating, Sedge, Umbrella (sedge, umbrella; [14]): 0
Plant response rating, Sedge, Umbrella (sedge, umbrella; 500 g ai/ha, scale 0 to 100): 0
Plant response rating, Sedge, Umbrella (sedge, umbrella; 1000 g ai/ha, scale 0 to 100): 0
Plant response rating, Ducksalad (ducksalad; [9]): 75
Plant response rating, Ducksalad (ducksalad; [14]): 85
Plant response rating, Ducksalad (ducksalad; 500 g ai/ha, scale 0 to 100): 100
Plant response rating, Ducksalad (ducksalad; 1000 g ai/ha, scale 0 to 100): 100
Plant response rating, Barnyardgrass (barnyardgrass [2]; [9]): 10
Plant response rating, Barnyardgrass (barnyardgrass [2]; [14]): 30
Plant response rating, Barnyardgrass (barnyardgrass [2]; 500 g ai/ha, scale 0 to 100): 60
Plant response rating, Barnyardgrass (barnyardgrass [2]; 1000 g ai/ha, scale 0 to 100): 80
